Laboratory results taken from patent publication US11834640B2, “Device and uses thereof for treating diabetes” (Board of Regents, The University of Texas System, priority 2019, dated 2023).

Legend:
Type in all cases: cell-based, mouse
βTC-6 cells [1] = assay: Calcium spiking frequency (Fluo-8) after 810 nm PBM exposure, pharmacologic studies
Experimental: Cell Culture. […] Cell passage was performed weekly with 0.25% Trypsin-EDTA. Samples were prepared by seeding βTC-6 cells on glass coverslips in low glucose media. These samples were used for experimentation between days 2 through 5. All cells were incubated at 37° C. in a 5% CO2 environment.
(§1) PBM Parameters. A Cytonsys (Austin, TX) 810 nm near-infrared laser was used to perform all experimentation. […] Herein, all βTC-6 samples were exposed to 810 nm for 1 minute with an irradiance of 150 mW/cm^2, resulting in a fluence of 9 J/cm^2. To measure the bulk temperature rise that was due to laser exposure, an Omega HH42A thermistor was used before and after irradiation.
(§2) Live Cell Imaging. For calcium and mitochondrial superoxide (mROS) detection, the cells were stained with Fluo-8 (0.8 μM, Abcam, Cambridge, UK), Mitosox (5 μM, Thermo-Fisher, Waltham, MA) and 1 drop/mL of Nucblue (Thermo-Fisher, Waltham, MA) for detection of intracellular calcium, mROS, and nucleic acid, respectively. The fluorescent dye DAF-FM (5 μM, Thermo-Fisher) was used to detect and measure cytosolic nitric oxide (NO). Hanks balanced salt solution (HBSS) was used (H8264, Sigma, St. Louis, MO) unless stated otherwise. Samples were stained at 37° C. for 30 minutes before being washed and mounted onto the imaging chamber.
Calcium Activity Analysis. Regions of interest (ROIs) were placed on individual cells using the nucleic acid staining and transferred to perform and calculate mean fluorescent intensity over time with background subtraction. Approximately 100 to 200 cells were monitored for each data point, and the results were averaged. A conservative moving average threshold (10 data points) with a 10% cutoff was used to determine a calcium spike. […] The active population was defined by the total number of active cells divided by the number of cells analyzed. The average spiking frequency of these active cells was then determined at each time point. Measurements were taken using Nikon Elements software and data analysis was carried out using Microsoft Excel. […]

βTC-6 cells [2] = assay: Mitochondrial superoxide (MitoSOX intensity) after 810 nm PBM exposure; conditions: ascorbic acid 2.5 mM, 9 J/cm^2
Experimental: as §1, with “experimentation. […] The energy density of 9 J/cm^2 was previously shown to have therapeutic effects on hepatic tissue in a diabetic state.” for “experimentation.”
as §2
Pharmacologic Studies. All drugs were added to the staining buffer. Samples were treated with each drug for 30 minutes before imaging. For L-type VGCC blocking, Verapamil (100 μM, V4629, Sigma) was applied. Capsazepine (10 μM, C191, Sigma) was added as a TRPV1 antagonist. […]

βTC-6 insulinoma cells = assay: Intracellular calcium rise (Fluo-8) after electric field exposure, blocking experiment; conditions: verapamil 100 μM, incubated 30 minutes before 3 V/cm EF for 15 min, HBSS
Experimental: Calcium labeling and depletion. Samples were washed with HBSS (Sigma) and incubated with 0.8 μM Fluo-8 (Abcam) for 30 minutes. NucBlue solution (Thermo) was added for 15 min in accordance to the manufacturer's recommended concentration to stain the nuclei. Cells were washed again and mounted onto the chamber. Changes in the Fluo-8 fluorescent intensity were monitored and recorded. Fluorescent images were acquired for 2 min at 5 s intervals with a 250 ms exposure time before and after the DCEF was applied. Image analysis was performed using the Nikon Elements image processor by identifying a ROI selection on selected nuclei with mean intensity of Fluo-8 over time. […]
Calcium Fluorescent Microscopy. […] Measurements for calcium rise recorded a single static image before and after EF exposure, while calcium spiking was recorded over 2 minutes before and after EFS with a 5 second sampling interval.
Calcium Image Analysis. For calcium rise, the mean intensity of clusters in the sample were measured at 0 minute (Pre) and 15 minute (Post) time points using Nikon Elements. Background subtraction was then performed and the percent change was determined by comparing the post-exposure to the pre-exposure mean intensities. […] The mean intensity over time was measured for both the pre and post imaging sessions. […]

## O=C1CN(/N=C/c2ccc(-c3ccc([N+](=O)[O-])cc3)o2)C(O)=N1 [dantrolene, Dantrolene]
βTC-6 cells [1]; dantrolene 50 μM, 30 minutes, 9 J/cm^2, difference only noticeable at the 15-minute mark
  calcium spiking frequency following PBM, versus control: decreased in comparison to the control

## O=C1O[C@H]([C@@H](O)CO)C(O)=C1O [ascorbic acid, Ascorbic Acid]
βTC-6 cells [2]
  MitoSOX intensity following PBM (superoxide): significant reduction in the MitoSOX intensity
βTC-6 cells [1]; ascorbic acid 2.5 mM, 9 J/cm^2
  calcium spiking frequency of active cells following PBM, AA-treated versus control: no significant difference in the calcium spiking frequency analysis between the AA-treated and control cells until the 10-minute time point

## NCCOB(c1ccccc1)c1ccccc1 [2-APB]
βTC-6 cells [1]; 2-APB 10 μM (FIG. 10B legend 20 μM), 30 minutes, 9 J/cm^2
  calcium spiking frequency following PBM: significantly impede such an increase in the calcium spiking frequency by PBM

## COc1ccc(CCN(C)CCCC(C#N)(c2ccc(OC)c(OC)c2)C(C)C)cc1OC (centres unmarked) [Verapamil]
βTC-6 insulinoma cells
  increase in intracellular calcium level in response to EF: effectively blocked the increase in intracellular calcium level
